# Several values for one entry are separate records, joined by “and”; a condition that tells them apart may be missing. Identical values can stand only once.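 1) Cells in 96-well plates. 2) Compound, 48 h, 5 concentrations. 3) Linear interpolation between surrounding doses. 4) Unreached endpoint = highest concentration. The concentration for 50% growth inhibition is given as GI50. The concentration for full growth arrest is given as TGI.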
# Assays:
# Assay in all cases: NCI-60 cell line screen, 48 h
# [1] = tested on: HCC-2998 colon
# [2] = tested on: 786-0 renal
# [3] = tested on: HT29 colon
# [4] = tested on: UACC-257 melanoma
# [5] = tested on: IGROV1 ovarian
# [6] = tested on: OVCAR-8 ovarian
# [7] = tested on: A549 NSCLC
# [8] = tested on: RPMI-8226 leukemia
# [9] = tested on: HCT-116 colon
# [10] = tested on: MALME-3M melanoma
# [11] = tested on: MDA-MB-435
# [12] = tested on: UACC-62 melanoma
# [13] = tested on: K-562 leukemia
# [14] = tested on: SNB-75 CNS
# [15] = tested on: NCI-H23 lung
# [16] = tested on: DU-145 prostate
# [17] = tested on: RXF 393 renal
# [18] = tested on: HCT-15 colon
# [19] = tested on: OVCAR-4 ovarian
# [20] = tested on: HS 578T breast
# [21] = tested on: OVCAR-5 ovarian
# [22] = tested on: NCI-H460 lung
# [23] = tested on: NCI-H522 lung
# [24] = tested on: LOX IMVI melanoma
# [25] = tested on: A498 renal
# [26] = tested on: U251 CNS
# [27] = tested on: SF-268 CNS
# [28] = tested on: HL-60(TB) leukemia
# [29] = tested on: T-47D breast
# [30] = tested on: MDA-MB-231 breast
# [31] = tested on: SK-MEL-28 melanoma
# [32] = tested on: BT-549 breast
# [33] = tested on: ACHN renal
# [34] = tested on: NCI/ADR-RES ovarian
# [35] = tested on: MOLT-4 leukemia
# [36] = tested on: CCRF-CEM leukemia
# [37] = tested on: SF-295 CNS
# [38] = tested on: SK-MEL-5 melanoma
# [39] = tested on: EKVX NSCLC
# [40] = tested on: SR leukemia
# [41] = tested on: OVCAR-3 ovarian
# [42] = tested on: M14 melanoma
# [43] = tested on: SW-620 colon
# [44] = tested on: SK-MEL-2 melanoma
# [45] = tested on: CAKI-1 renal
# [46] = tested on: MCF7 breast
# [47] = tested on: SK-OV-3 ovarian
# [48] = tested on: TK-10 renal
# [49] = tested on: KM12 colon
# [50] = tested on: HOP-92 NSCLC
# [51] = tested on: SN12C renal
# [52] = tested on: COLO 205 colon
# [53] = tested on: PC-3 prostate
# [54] = tested on: UO-31 renal
# [55] = tested on: NCI-H226 lung
# [56] = tested on: SNB-19 CNS
# [57] = tested on: SF-539 CNS
# [58] = tested on: HOP-62 NSCLC
smiles,measurement,setting,value
COc1cc([C@@H]2c3cc4c(cc3[C@H](O)[C@H]3COC(=O)[C@@H]23)OCO4)cc(OC)c1OC,GI50,[1],948 nM and 159 nM
same,TGI,[1],> 6160 nM and 647 nM
same,GI50,[2],504 nM and 332 nM
same,TGI,[2],> 100000 nM
same,GI50,[3],360 nM and 104 nM
same,TGI,[3],> 3940 nM and 1060 nM
same,GI50,[4],> 100000 nM
same,TGI,[4],> 100000 nM
same,GI50,[5],423 nM and 240 nM
same,TGI,[5],> 100000 nM
same,GI50,[6],707 nM and 397 nM
same,TGI,[6],> 100000 nM
same,GI50,[7],732 nM and 333 nM
same,TGI,[7],> 100000 nM
same,GI50,[8],566 nM and 300 nM
same,TGI,[8],> 10000 nM and 1370 nM
same,GI50,[9],406 nM and 185 nM
same,TGI,[9],> 10000 nM
same,GI50,[10],1110 nM and 169 nM
same,TGI,[10],> 100000 nM
same,GI50,[11],124 nM and 31.5 nM
same,TGI,[11],377 nM and 132 nM
same,GI50,[12],407 nM and 153 nM
same,TGI,[12],> 100000 nM
same,GI50,[13],349 nM and 405 nM
same,TGI,[13],> 100000 nM
same,GI50,[14],256 nM and 45.5 nM
same,TGI,[14],> 100000 nM
same,GI50,[15],780 nM and 239 nM
same,TGI,[15],> 100000 nM
same,GI50,[16],544 nM and 237 nM
same,GI50,[17],211 nM and 316 nM
same,GI50,[18],415 nM and 327 nM
same,TGI,[18],> 100000 nM
same,GI50,[19],1030 nM and 4920 nM
same,TGI,[19],> 100000 nM
same,GI50,[20],298 nM and 293 nM
same,TGI,[20],> 5830 nM
same,GI50,[21],721 nM
same,TGI,[21],> 100000 nM
same,GI50,[22],371 nM and 138 nM
same,TGI,[22],> 10000 nM and 3070 nM
same,GI50,[23],244 nM and 281 nM
same,GI50,[24],460 nM and 623 nM
same,TGI,[24],> 100000 nM
same,GI50,[25],239 nM and 451 nM
same,GI50,[26],460 nM and 382 nM
same,TGI,[26],> 100000 nM
same,GI50,[27],722 nM and 445 nM
same,TGI,[27],> 100000 nM
same,GI50,[28],293 nM and 454 nM
same,TGI,[28],> 2810 nM and 64100 nM
same,GI50,[29],405 nM
same,TGI,[29],4640 nM
same,GI50,[30],776 nM and 454 nM
same,TGI,[30],> 100000 nM
same,GI50,[31],561 nM and 374 nM
same,TGI,[31],> 100000 nM
same,GI50,[32],632 nM and 259 nM
same,TGI,[32],> 42500 nM
same,GI50,[33],568 nM and 1410 nM
same,TGI,[33],> 100000 nM
same,GI50,[34],884 nM and 194 nM
same,TGI,[34],> 10000 nM
same,GI50,[35],587 nM and 845 nM
same,TGI,[35],> 100000 nM
same,GI50,[36],374 nM and 302 nM
same,TGI,[36],> 100000 nM
same,GI50,[37],285 nM and 104 nM
same,TGI,[37],1610 nM
same,GI50,[38],351 nM and 35.5 nM
same,TGI,[38],1800 nM and 254 nM
same,GI50,[39],434 nM
same,TGI,[39],> 100000 nM
same,GI50,[40],222 nM
same,TGI,[40],> 10000 nM
same,GI50,[41],303 nM and 159 nM
same,TGI,[41],1530 nM and 371 nM
same,GI50,[42],355 nM and 135 nM
same,TGI,[42],> 100000 nM
same,GI50,[43],409 nM and 219 nM
same,TGI,[43],> 100000 nM
same,GI50,[44],445 nM and 584 nM
same,TGI,[44],> 100000 nM
same,GI50,[45],448 nM and 258 nM
same,TGI,[45],> 35800 nM
same,GI50,[46],321 nM and 61.2 nM
same,TGI,[46],> 100000 nM
same,GI50,[47],529 nM and 301 nM
same,GI50,[48],743 nM
same,TGI,[48],9860 nM
same,GI50,[49],343 nM and 158 nM
same,TGI,[49],> 8500 nM and 967 nM
same,TGI,[50],> 88600 nM
same,GI50,[51],677 nM and 400 nM
same,TGI,[51],> 100000 nM
same,GI50,[52],347 nM and 132 nM
same,TGI,[52],1300 nM and 431 nM
same,GI50,[53],362 nM and 510 nM
same,TGI,[53],> 100000 nM
same,GI50,[54],480 nM and 602 nM
same,TGI,[54],> 100000 nM
same,GI50,[55],754 nM and 602 nM
same,TGI,[55],> 100000 nM
same,GI50,[56],462 nM and 231 nM
same,TGI,[56],> 100000 nM
same,GI50,[57],256 nM and 94 nM
same,TGI,[57],876 nM and 400 nM
same,GI50,[58],533 nM and 226 nM
same,TGI,[58],> 100000 nM

# — PubChem BioAssay (NCI)
